Source: US20150111933A1, “Deuterated Thiazolidinone Analogues as Agonists for Follicle Stimulating Hormone Receptor” (Merck Patent GmbH, priority 2012, published 2015)

How the values were obtained:
FSHR = target: T1, FSHR (Homo sapiens, UniProt P23945); assay: EC50 of cyclic AMP production in CHO FSHR cells + EC20 FSH (HTRF); assay type: cell-based; details: Cho-FSHR-LUC-1-1-43 cells; for EC50: + EC20 FSH (0.265 pM), 200 μM IBMX, 1 h at 37° C., read-out: EC50 of cAMP production; for EC50 of cAMP production (% effect) / Emax: + EC20 FSH, % effect in brackets; for Emax: 1 h, read-out: EC50 of cAMP production (% effect)
T1 construct: expressed in transfected cells; host or cells: CHO (Cho-FSHR-LUC-1-1-43)
T1 sequence (P23945 18-695): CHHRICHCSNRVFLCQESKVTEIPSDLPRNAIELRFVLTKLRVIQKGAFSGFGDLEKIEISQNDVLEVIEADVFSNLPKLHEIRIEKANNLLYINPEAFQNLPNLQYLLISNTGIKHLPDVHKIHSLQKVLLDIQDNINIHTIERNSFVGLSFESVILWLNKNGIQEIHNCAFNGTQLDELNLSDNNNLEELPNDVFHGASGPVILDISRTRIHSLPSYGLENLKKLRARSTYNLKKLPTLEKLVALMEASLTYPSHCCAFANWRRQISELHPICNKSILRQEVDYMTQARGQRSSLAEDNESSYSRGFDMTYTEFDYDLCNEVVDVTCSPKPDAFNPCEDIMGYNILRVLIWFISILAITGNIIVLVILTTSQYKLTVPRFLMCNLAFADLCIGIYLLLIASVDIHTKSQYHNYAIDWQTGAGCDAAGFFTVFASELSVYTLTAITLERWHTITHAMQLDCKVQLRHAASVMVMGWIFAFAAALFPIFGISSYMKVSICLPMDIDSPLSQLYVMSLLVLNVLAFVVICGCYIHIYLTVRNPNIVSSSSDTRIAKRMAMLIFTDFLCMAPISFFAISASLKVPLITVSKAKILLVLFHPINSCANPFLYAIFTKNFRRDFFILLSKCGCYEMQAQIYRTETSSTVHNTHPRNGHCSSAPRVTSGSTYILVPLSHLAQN
Method: EC50 of Cyclic AMP Production in CHO FSHR Cells+EC20 FSH
2500 Cho-FSHR-LUC-1-1-43 cells were plated per well in 5 μL of phenol red free DMEM/F12+1% FBS. Cells were plated in 384 well, solid white low volume plates (Greiner 784075) by Multidrop. Cells were assayed by adding […] of 2×EC20 FSH/IBMX in DMEM/F12+0.1% BSA) by Multidrop to 2 μL of test compound stamped in 384 well plates (compounds are diluted 1:50). The final FSH concentration was 0.265 pM, and the final IBMX concentration was 200 μM. The compound plate map was as follows: Column 1: 2 μL of DMSO; Column 2: 2 μL of DMSO; Columns 3-12 and 13-24: 2 μL of test compound, diluted 1:4 in 100% DMSO, or 2 μL of FSH, diluted 1:4 in DMEM/F12+0.1% BSA. The starting concentration for FSH was 50 nM (final concentration was 0.5 nM). Furthermore, Column 23 contained 2 μL of EC100 FSH reference (100×) (diluted in DMEM/F12+0.1% BSA) at a final concentration of 0.5 nM, and Column 24 contained 2 μL of 1 mM AS707664/2 reference compound 2. 5 μL of compound+EC20 FSH mixture were transferred to cell plates (1:2 dilution into 5 μL of cell media) The plates were incubated at 37° C. for 1 h. 10 μL of mixed HTRF (CisBio #62AM4PEC) reagents were added per well and incubated at room temperature for 1 h. The plates were read on Envision using the cAMP HTRF—low volume 384 well protocol. The readout was the calculated fluorescence ratio (665 nm/620 nm).

[1] = Intrinsic clearance (Clint) in human liver microsomes; assay type: in vitro ADME; details: 0.5 mg/mL protein, NADPH, up to 30 min, first value of human/rat; for Clint (human): human liver microsomes; for microsomal CLint at 0.8 μM: human, liver microsomes, pH 7.4, human liver microsomes
Method: (§1) Intrinsic Clearance (Clint) Assay Protocol:
(§2) A Tecan Genesis workstation (RSP 150/8) was used for to perform the microsomal incubations. Analysis was carried out using a Waters ACQUITY UPLC system coupled to an ABSciex API3000 mass spectrometer. Data analysis was performed using Assay Explorer (Symyx).
(§3) 0.1 M potassium phosphate buffer pH 7.4 containing 1 mM MgCl2 15 mM NADPH in phosphate buffer 4.4 mg protein/mL liver microsomes in phosphate buffer acetonitrile 20% DMSO in water
(§4) Each experiment consists of 12 test and 2 reference compounds. The reference compounds are incubated as a cocktail. Dilution of test compounds was done in 2 steps from a 10 mM DMSO stock solution. First 4 μL stock solution was added to 196 μL of 20% DMSO in potassium phosphate buffer pH 7.4. In a second step 10 μL of the first dilution were added to […] potassium phosphate buffer and 100 μL internal standard solution to a final concentration of 0.8 μM. 100 μL of the final compound dilution were aliquoted into a 96 deep well plate. 12.5 μL liver microsomes were added to each well (0.5 mg/mL final protein concentration) and the samples preincubated for 5 min at 37° C. and 800 rpm agitation.
(§5) After the preincubation, 250 μL cold acetonitrile were added to the 0 min samples to prevent a reaction. Following this, 12.5 μL NADPH solution were added to all wells to start the incubation, with the exception of the 0 min and 30 min controls without cofactor, where the NADPH was substituted for phosphate buffer.
(§6) The incubations were stopped after 5, 10, 20 and 30 min by adding 250 μL cold acetonitrile to the individual wells.
(§7) The quenched samples were then centrifuged at 4000 g for 1 h at 4° C. 100 μL of the supernatant were transferred into 96 well plates for analysis.
(§8) The metabolic stability of each compound was determined by measurement of the change in LC-MS/MS peak area over time. Assay Explorer software was used to automatically calculate the slope k of the decline. The intrinsic clearance (Clint) of each compound was then calculated according to the formula:
(§9) Clint (μL/min/mg protein)=k1000/protein concentration.

[2] = Intrinsic clearance (Clint) in rat liver microsomes; assay type: in vitro ADME; details: 0.5 mg/mL protein, NADPH, up to 30 min, second value of human/rat; for Clint (rat): rat liver microsomes; for microsomal CLint at 0.8 μM: rat, liver microsomes, pH 7.4, rat liver microsomes
Method: as §1, §2, §3, §4, §5, §6, §7, §8, §9

Molecule	EC50 (FSHR)	EC50 of cAMP production (% effect) (FSHR)	Clint (human) [1]	Clint (rat) [2]	microsomal CLint at 0.8 μM [1]	microsomal CLint at 0.8 μM [2]	Emax (FSHR)
3-((2S,5R)-5-(2-((3-ethoxy-4-methoxyphenethyl)amino)-2-oxoethyl)-4-oxo-2-(4-((phenyl-d5)ethynyl)phenyl)thiazolidin-3-yl)benzamide [Compound 8]	1.7 nM	(99) %	188 μL/min/mg protein	54 μL/min/mg protein	–	–	–
[2H]C([2H])(NC(=O)C[C@H]1S[C@@H](c2ccc(C#Cc3ccccc3)cc2)N(c2cccc(C(N)=O)c2)C1=O)C([2H])([2H])c1ccc(O)c(OC)c1 (single isomer, unassigned) [Compound 1]	0.87 nM	–	–	–	67 µL/min/mg	31 µL/min/mg	99%
[2H]C([2H])([2H])Oc1ccc(C([2H])([2H])C([2H])([2H])NC(=O)C[C@H]2S[C@@H](c3ccc(C#Cc4ccccc4)cc3)N(c3cccc(C(N)=O)c3)C2=O)cc1OCC (single isomer, unassigned) [Compound 5]	0.8 nM	–	–	–	168 µL/min/mg	45 µL/min/mg	99%
[2H]c1c([2H])c([2H])c(C#Cc2ccc([C@@H]3S[C@H](CC(=O)NC([2H])([2H])C([2H])([2H])c4ccc(O)c(OC)c4)C(=O)N3c3cccc(C(N)=O)c3)cc2)c([2H])c1[2H] (single isomer, unassigned) [Compound 11]	335 nM	–	–	–	–	–	99%
[2H]c1c([2H])c([C@@H]2S[C@H](CC(=O)NC([2H])([2H])C([2H])([2H])c3ccc(OC([2H])([2H])[2H])c(OCC)c3)C(=O)N2c2cccc(C(N)=O)c2)c([2H])c([2H])c1C#Cc1ccccc1 (single isomer, unassigned) [Compound 16]	0.7 nM	–	–	–	–	–	100%
[2H]c1c([2H])c([2H])c(C#Cc2ccc([C@@H]3S[C@H](CC(=O)NCCc4ccc(O)c(O)c4)C(=O)N3c3cccc(C(N)=O)c3)cc2)c([2H])c1[2H] [Compound 12, 3-((2S,5R)-5-(2-((3,4-dihydroxyphenethyl)amino)-2-oxoethyl)-4-oxo-2-(4-((2,3,4,5,6-phenyl-d5)ethynyl)phenyl)thiazolidin-3-yl)benzamide]	220 nM	–	–	–	–	–	99%
[2H]c1c([2H])c([2H])c(C#Cc2ccc([C@@H]3S[C@H](CC(=O)NC([2H])([2H])C([2H])([2H])c4ccc(OC([2H])([2H])[2H])c(OC)c4)C(=O)N3c3cccc(C(N)=O)c3)cc2)c([2H])c1[2H] [Compound 13, 3-((2S,5R)-4-oxo-5-(2-oxo-2-((1,1,2,2-d4-2-(3-ethoxy-4-methox-d3-yphenyl)ethyl)amino)ethyl)-2-(4-((phenyl-d5)ethynyl)phenyl)thiazolidin-3-yl)benzamide]	1.3 nM	–	–	–	–	–	97%
[2H]c1c([2H])c([C@@H]2S[C@H](CC(=O)NC([2H])([2H])C([2H])([2H])c3ccc(OC([2H])([2H])[2H])c(OC([2H])([2H])[2H])c3)C(=O)N2c2cccc(C(N)=O)c2)c([2H])c([2H])c1C#Cc1ccccc1 [Compound 17, 3-((2S,5R)-4-oxo-5-(2-oxo-2-((1,1,2,2-d4-2-(3,4-dimethoxy-d6-phenyl)ethyl)amino)ethyl)-2-(2,3,5,6-d4-4-(phenylethynyl)phenyl-d5)thiazolidin-3-yl)benzamide]	0.9 nM	–	–	–	–	–	100%

More lines, in order of falling EC50 (FSHR), values ahead:

EC50 (FSHR)	EC50 of cAMP production (% effect) (FSHR)	Clint (human) [1]	Clint (rat) [2]	microsomal CLint at 0.8 μM [1]	microsomal CLint at 0.8 μM [2]	Emax (FSHR)	Molecule
0.7 nM	–	191 μL/min/mg protein	–	–	51 µL/min/mg	99%	[2H]C([2H])(NC(=O)C[C@H]1S[C@@H](c2ccc(C#Cc3ccccc3)cc2)N(c2cccc(C(N)=O)c2)C1=O)C([2H])([2H])c1ccc(OC)c(OCC)c1 (single isomer, unassigned) [Compound 4]
0.7 nM	–	–	–	208 µL/min/mg	56 µL/min/mg	96%	[2H]C([2H])([2H])Oc1ccc(CCNC(=O)C[C@H]2S[C@@H](c3ccc(C#Cc4ccccc4)cc3)N(c3cccc(C(N)=O)c3)C2=O)cc1OCC (single isomer, unassigned) [Compound 6]
0.6 nM	(99) %	–	–	–	–	–	3-((2S,5R)-4-oxo-5-(2-oxo-2-((1,1,2,2-d4-2-(3-ethoxy-4-methoxy-d3-phenyl)ethyl)amino)ethyl)-2-(2,3,5,6-d4-4-(phenylethynyl)phenyl)thiazolidin-3-yl)benzamide [Compound 15]
0.5 nM	(99) %	184 μL/min/mg protein	44 μL/min/mg protein	–	–	–	3-((2S,5R)-4-oxo-5-(2-oxo-2-((2-(3,4-dimethoxyphenyl-d6l)ethyl)amino)ethyl)-2-(4-(phenylethynyl)phenyl)thiazolidin-3-yl)benzamide [Compound 7]
0.3 nM	–	–	–	181 µL/min/mg	31 µL/min/mg	97%	[2H]c1c([2H])c([2H])c(C#Cc2ccc([C@@H]3S[C@H](CC(=O)NC([2H])([2H])C([2H])([2H])c4ccc(OC)c(OCC)c4)C(=O)N3c3cccc(C(N)=O)c3)cc2)c([2H])c1[2H] (single isomer, unassigned) [Compound 9]
0.3 nM	–	–	–	161 µL/min/mg	23 µL/min/mg	98%	[2H]c1c([2H])c([2H])c(C#Cc2ccc([C@@H]3S[C@H](CC(=O)NC([2H])([2H])C([2H])([2H])c4ccc(OC([2H])([2H])[2H])c(OCC)c4)C(=O)N3c3cccc(C(N)=O)c3)cc2)c([2H])c1[2H] (single isomer, unassigned) [Compound 10]
